From EP0915086A1, “PHENYLSULFONAMIDE DERIVATIVES” (ONO PHARMACEUTICAL CO., LTD., priority 1996, dated 1997) come the findings set out here.

Structures can show the parent of a compound that is named as a salt.

As a reminder, the IC50 is the point on the concentration scale where inhibition reaches its midpoint.

One test deals with T1, gelatinase A (Homo sapiens, UniProt P08253).
T1 construct: endogenous in cells; host or cells: human normal skin dermal fibroblasts (HNDF)
T1 sequence (P08253 110-660): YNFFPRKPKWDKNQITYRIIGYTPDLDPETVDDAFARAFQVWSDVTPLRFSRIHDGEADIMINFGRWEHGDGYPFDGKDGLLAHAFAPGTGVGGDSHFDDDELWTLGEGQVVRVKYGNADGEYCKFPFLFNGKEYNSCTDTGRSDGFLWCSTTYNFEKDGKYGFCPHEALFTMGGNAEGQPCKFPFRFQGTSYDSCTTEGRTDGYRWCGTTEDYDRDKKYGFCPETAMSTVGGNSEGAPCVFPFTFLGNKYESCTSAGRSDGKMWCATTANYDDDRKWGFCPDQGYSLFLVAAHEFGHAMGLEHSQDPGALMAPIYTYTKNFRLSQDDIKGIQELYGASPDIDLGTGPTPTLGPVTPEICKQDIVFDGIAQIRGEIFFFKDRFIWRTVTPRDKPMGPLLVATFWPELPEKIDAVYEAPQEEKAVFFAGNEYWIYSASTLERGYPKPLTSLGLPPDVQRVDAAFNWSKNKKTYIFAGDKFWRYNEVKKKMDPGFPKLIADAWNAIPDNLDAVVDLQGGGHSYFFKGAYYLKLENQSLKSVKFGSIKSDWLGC
In words: Inhibitory activity against gelatinase A. The note with it: progelatinase A from human normal skin dermal fibroblasts (HNDF), activated with APMA; substrate MOCAc-Pro-Leu-Gly-A2pr(Dnp)-Ala-Arg-NH2; 37 °C, 20 minutes; fluorescence Ex 328 nm, Em 393 nm. The test is classed as biochemical. Here is the method: Progelatinase A (7 µl; in assay buffer (90 µl)) was purified from human normal skin dermal fibroblasts (HNDF). It was activated by addition of 10 mM p-aminophenyl mercuric acetate (APMA) (10 µl) and preincubation at 37 °C for 1 hour. The solution (890 µl; the final concentration was […]) of the synthetic substrates (MOCAc-Pro-Leu-Gly-A2pr(Dnp)-Ala-Arg-NH2) was mixed with various concentrations of the test compound or a solution without it (10 µl) and the mixture was preincubated at 37 °C for 5 minutes. The activated gelaninase A prepared above (7 µl/tube, 100 µl) was added to the reaction mixture and further incubated at 37 °C for 20 minutes. The enzyme reaction was terminated by addition of 0.1 M sodium acetate buffer (2ml; pH 4.0).
The IC50 value was determined by measuring the fluorescent intensity (Ex = 328 nm, and Em = 393 nm) in this solution.
`Cc1ccc(C=Cc2ccc(S(=O)(=O)N[C@H](C)C(=O)O)cc2)cc1` (stereo in doubt) [Example 3(1), N-[4-[2-(4-Methylphenyl)ethenyl]phenylsulfonyl]-D-alanine]: the midpoint of inhibition, the IC50, lay at 6.2 nM.

Take `Cc1ccc(C#Cc2ccc(S(=O)(=O)N[C@H](C)C(=O)O)cc2)cc1` [Example 2(1), N-[4-[2-(4-Methylphenyl)ethynyl]phenylsulfonyl]-D-alanine]: it took 13 nM to reach half-maximal inhibition (IC50).

Turning to `Cc1ccc(C#Cc2ccc(S(=O)(=O)N[C@H](Cc3c[nH]c4ccccc34)C(=O)O)cc2)cc1` [Example 2(4), N-[4-[2-(4-Methylphenyl)ethynyl]phenylsulfonyl]-D-tryptophan], the IC50 is 6.5 nM.

With `O=C(O)[C@@H](Cc1c[nH]c2ccccc12)NS(=O)(=O)c1ccc(C#Cc2ccc(-n3ccnc3)cc2)cc1` [Example 2(18), N-[4-[2-(4-Imidazolylphenyl)ethynyl]phenylsulfonyl]-D-tryptophan], the IC50 is 11 nM.

The molecule `CN(CCc1ccccc1)C(=O)CC[C@@H](NS(=O)(=O)c1ccc(C#Cc2ccc(-n3ccnc3)cc2)cc1)C(=O)O` [Example 2(27), N-[4-[2-(4-Imidazolylphenyl)ethynyl]phenylsulfonyl]-N'-methyl-N'-(2-phenylethyl)-D-glutamine] gave an IC50 of 3.3 nM.

Molecule `CCCC#Cc1ccc(S(=O)(=O)N[C@H](C)C(=O)NO)cc1` [Example 6(1), N-Hydroxy-[N-[4-(1-pentynyl)phenylsulfonyl]-D-alanyl]amide] came in with an IC50 of 1.2 nM.

Consider `Cc1ccc(/C=C/c2ccc(S(=O)(=O)N[C@H](C)C(=O)NO)cc2)cc1` [Example 6(2), N-Hydroxy-[N-[4-[2-(4-methylphenyl)ethenyl]phenylsulfonyl]-D-alanyl]amide], for which the IC50 is 0.2 nM.

In turn, `Cc1ccc(C#Cc2ccc(S(=O)(=O)N[C@H](C)C(=O)NO)cc2)cc1` [Example 6(4), N-Hydroxy-[N-[4-[2-(4-methylphenyl)ethynyl]phenylsulfonyl]-D-alanyl]amide] showed an IC50 of 0.7 nM.

`CCCCCC#Cc1ccc(S(=O)(=O)N[C@H](C)C(=O)NO)cc1` [Example 6(11), N-Hydroxy-[N-[4-[4-(1-heptynyl)]phenylsulfonyl]-D-alanyl]amide] came in with a half-maximal inhibitory concentration (IC50) of 2.4 nM.

Turning to `C#Cc1ccc(S(=O)(=O)N[C@H](CCC(=O)NCCc2ccccc2)C(=O)NO)cc1` [Example 6(17), N-Hydroxy-[N-(4-ethynyl)phenylsulfonyl-N'-(2-phenylethyl)-D-glutaminyl]amide], the IC50 was 0.8 nM.

With `C[C@H](C(=O)NO)N(C)S(=O)(=O)c1ccc(C#Cc2ccc(-n3ccnc3)cc2)cc1` [Example 10(3), N-Hydroxy-[N-methyl-N-[4-[2-[4-(1-imidazolyl)phenyl]ethynyl]phenylsulfonyl]-D-alanyl]amide hydrochloride], the IC50 came to 0.4 nM.

Molecule `CCCC#Cc1ccc(S(=O)(=O)N(C)[C@H](C)C(=O)NO)cc1` [Example 10(4)] gave an IC50 of 0.7 nM.

`Cc1ccc(C#Cc2ccc(S(=O)(=O)N(C)[C@H](C)C(=O)NO)cc2)cc1` [Example 10, N-Hydroxy-[N-methyl-N-[4-[2-(4-methylphenyl)ethynyl]phenylsulfonyl]-D-alanyl]amide] yielded an IC50 of 7.5 nM.

Another test addresses T2, collagenase (Homo sapiens, UniProt P03956).
T2 construct: endogenous in cells; host or cells: human normal dermal fibroblasts (HNDF)
T2 sequence (P03956 100-469): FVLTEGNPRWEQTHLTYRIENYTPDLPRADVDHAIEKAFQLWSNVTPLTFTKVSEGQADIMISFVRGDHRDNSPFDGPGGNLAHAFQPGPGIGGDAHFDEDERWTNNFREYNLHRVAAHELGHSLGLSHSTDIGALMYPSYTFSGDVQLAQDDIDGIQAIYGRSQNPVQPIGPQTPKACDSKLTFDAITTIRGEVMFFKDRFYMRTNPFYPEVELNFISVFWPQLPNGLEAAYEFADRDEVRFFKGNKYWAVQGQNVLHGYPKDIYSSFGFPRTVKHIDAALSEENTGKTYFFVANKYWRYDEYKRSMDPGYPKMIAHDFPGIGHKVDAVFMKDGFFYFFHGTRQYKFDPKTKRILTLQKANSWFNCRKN
In words: Inhibitory activity against collagenase. The test is classed as biochemical. The note with it: procollagenase from human normal dermal fibroblasts (HNDF), activated with trypsin; substrate Ac-Pro-Leu-Gly-[2-mercapto-4-methyl-pentanoyl]-Leu-Gly-OEt; 26 °C, 10 minutes; absorption at 324 nm. Here is the method: Trypsin (45 µl; 1 mg/ml) was added to a solution of procollagenase (5 µM) purified from human normal dermal fibloblasts (HNDF) in assay buffer (105 µl). The solution was preincubated in order to activate the enzyme at 37°C for 1 minute.
Trypsin was inactivated by addition of soybean trypsin inhibitor (SBTI; 50 µl). Solutions (20 µl) of synthetic substrate (Ac-Pro-Leu-Gly-[2-mercapto-4-methyl-pentanoyl]-Leu-Gly-OEt) (105 µl; the final concentration […]) with or without various concentrations of the test compound were preincubated for 5 minutes at 26 °C.
To the solutions, activated enzyme (75 µl/tube, 50 µl) prepared above was added. The mixtures were incubated at 26 °C for 10 minutes.
Absorption at 324 nm was measured at 40 points during the 10 minutes.
Vmax value was determined as measured value in 30 points therein.
For the molecule `C#Cc1ccc(S(=O)(=O)N[C@H](CCC(=O)NCCc2ccccc2)C(=O)NO)cc1` [Example 6(17), N-Hydroxy-[N-(4-ethynyl)phenylsulfonyl-N'-(2-phenylethyl)-D-glutaminyl]amide], it took 63 nM to reach half-maximal inhibition (IC50).

In turn, `C#Cc1ccc(S(=O)(=O)N[C@H](CCC(=O)NC(Cc2ccccc2)c2ccccc2)C(=O)NO)cc1` (stereo partly drawn) [Example 6(19), N-Hydroxy-[N-(4-ethynyl)phenylsulfonyl-N'-(1,2-diphenylethyl)-D-glutaminyl]amide] showed an IC50 of 65 nM.

`CC#Cc1ccc(S(=O)(=O)N(C)[C@H](C)C(=O)NO)cc1` [Example 10(13), N-Hydroxy-[N-methyl-N-[4-(1-propynyl)phenylsulfonyl]-D-alanyl]amide] displayed a concentration for half-maximal inhibition (IC50) of 290 nM.
